The text below walks through data of ChEMBL document CHEMBL1149187, “Design, synthesis, and biological activity of 4-[(4-cyano-2-arylbenzyloxy)-(3-methyl-3H-imidazol-4-yl)methyl]benzonitriles as potent and selective farnesyltransferase inhibitors” (J Med Chem, 2004).

Data set [1] addresses T1, Protein farnesyltransferase (Homo sapiens, UniProt P49354+P49356). In words: Effective concentration required for inhibition of farnesylation of Ras protein in NIH3T3 cells. It counts as functional, cell-based, Mus musculus.
In data set [2] the target is T1, Protein farnesyltransferase. Nature of the data set: (§1) Inhibition of Farnesyltransferase. Type of data set: protein-complex assay.
In data set [3] the target is Geranylgeranyl transferase type I (Homo sapiens, UniProt P49354+P53609). Nature of the data set: Inhibition of Geranylgeranyl transferase type I. It counts as protein-complex assay.
The nature of data set [4]: in vivo. The settings on record: dog, plasma.
The nature of data set [5]: Area under plasma concentration time curve in dog upon oral administration.
Data set [6] in a line: Half-life in dog upon oral administration. The settings on record: in vivo.
The nature of data set [7]: in vivo. As to conditions: dog.
The species entered for data set [8] is Canis familiaris. Nature of the data set: Plasma clearance in dog; Unable to calculate. It counts as ADME, organism-based, Canis lupus familiaris. The settings on record: in vivo.
For data set [9], the system named is Canis familiaris. In words: Half-life in dog upon oral administration; Unable to calculate. Type of data set: ADME, organism-based, Canis lupus familiaris. The settings on record: in vivo.
Data set [10] deals with T1, Protein farnesyltransferase. The data set is described as §1. Type of data set: protein-complex assay. The source holds these as a separate data set.

Structures are written as SMILES. Bounds are passed on as bounds.

Compound `Cn1cncc1C(OCc1ccc(C#N)cc1-c1ccc(F)c(F)c1)c1ccc(C#N)cc1` (stereo not given) yielded an EC50 in [1] of 96 nM.
Consider `Cn1cncc1C(OCc1ccc(C#N)cc1NS(=O)(=O)c1cccs1)c1ccc(C#N)cc1` (stereo not given), for which the EC50 in [1] is more than 100 nM.
Regarding `Cc1ncc(C(OCc2ccc(C#N)cc2-c2cccc(Cl)c2)c2ccc(C#N)cc2)n1C` (stereo not given), the EC50 in [1] was 154 nM.
Consider `Cn1cncc1C(OCc1ccc(C#N)cn1)c1ccc(C#N)c(-c2cccc3ccccc23)c1` (stereo not given), for which the half-maximal inhibitory concentration (IC50) in data set [2] came to 0.4 nM; in data set [3], 24 nM. The compound further registered an EC50 in data set [1] of 8 nM.
In the data set “in vivo [4]”, `Cn1cncc1C(OCc1ccc(C#N)cc1-c1ccc(OC(F)(F)F)cc1)c1ccc(C#N)cc1` (stereo not given) gave a clearance of 7.33 mL/min/kg. This compound also came in with an AUC in data set [5] of 1530 ng·h/mL. A half-maximal response in [1] (EC50) required 5.1 nM. This compound had a half-life in [6] of 6.7 h.
As to `Cn1cncc1C(OCc1ccc(C#N)cc1)c1ccc(C#N)c(-c2cccc3ccccc23)c1` (stereo not given), the half-maximal inhibitory concentration (IC50) amounted to 0.3 nM in data set [2] and 18 nM in [3].
In turn, `COc1cccc(-c2cc([N+](=O)[O-])ccc2COC(c2ccc(C#N)cc2)c2cncn2C)c1` (stereo not given) showed an EC50 in [1] of 0.81 nM.
`COc1ccc(-c2cc(C#N)ccc2COC(c2ccc(C#N)cc2)c2cncn2C)cc1` (stereo not given): in “in vivo [4]”, the clearance is 12.2 mL/min/kg. Besides, the AUC in data set [5] came to 760 ng·h/mL. In addition, a half-maximal effect in data set [1] (EC50) was put at 7 nM. The compound further showed a half-life in data set [6] of 3.6 h.
`COCc1cccc(-c2cc(C#N)ccc2COC(c2ccc(C#N)cc2)c2cncn2C)c1` (stereo not given) gave a clearance in “in vivo [4]” of 8.5 mL/min/kg. The AUC in [5] was 260 ng·h/mL. Moreover, the EC50 in [1] worked out at 1 nM. The half-life in [6] is 2.2 h.
`Cn1cncc1C(OCc1ccc(C#N)cc1C(=O)Nc1ccccc1)c1ccc(C#N)cc1` (stereo not given): the clearance in the data set “in vivo [4]” is 3.17 mL/min/kg. This compound yielded an AUC in [5] of 5720 ng·h/mL. The concentration giving a half-maximal response (EC50) in data set [1] is 12 nM. In “in vivo [7]”, this compound returned a bioavailability of 96%. In addition, the half-life in data set [6] was 18.4 h.
Regarding `Cn1cncc1C(OCc1ccc(C#N)cc1-c1cccc(Cl)c1)c1ccc(C#N)cc1` (stereo not given), in the data set “in vivo [4]”, the clearance was 6.67 mL/min/kg. In data set [5], the area under the curve (AUC) was found to be 9890 ng·h/mL. In data set [1], the response was half-maximal at 5.2 nM (EC50). This compound had a half-life in [6] of 4.7 h.
The compound `Cn1cncc1C(OCc1ccc(C#N)cc1-c1ccc2c(c1)OC(F)(F)O2)c1ccc(C#N)cc1` (stereo not given) had a clearance in the data set “in vivo [4]” of 5.17 mL/min/kg. The AUC in data set [5] was found to be 2760 ng·h/mL. In [1], this compound had an EC50 of 9.1 nM. Also, the half-life in data set [6] was 1.3 h.
As for `Cn1cncc1C(OCc1ccc(C#N)cc1C(=O)Nc1cccc(Cl)c1)c1ccc(C#N)cc1` (stereo not given), a half-maximal response in data set [1] (EC50) required 3.5 nM.
Turning to `COC(=O)c1ccc(COC(c2ccc(C#N)cc2)c2cncn2C)c(-c2cccc(OC)c2)c1` (stereo not given), the EC50 in data set [1] is more than 100 nM.
As to `Cn1cncc1C(OCc1ccc(Cl)cc1-c1ccccc1Cl)c1ccc(C#N)cc1` (stereo not given), the Clp result in the data set filed under Canis familiaris [8] is “Unable to calculate”. For the same compound, the AUC in data set [5] was determined as 9850 ng·h/mL. The compound further yielded a half-maximal effective concentration (EC50) in data set [1] of more than 1000 nM. The compound further registered a bioavailability in “in vivo [7]” of 65%. The T1/2 result in the data set on Canis familiaris [9] is “Unable to calculate”.
Regarding `CCOc1ccc(-c2cc(C#N)ccc2COC(c2ccc(C#N)cc2)c2cncn2C)cc1` (stereo not given), in [1], the EC50 was determined as 13 nM.
The same measure, in the same setting: as for `COc1cccc(-c2cc(NS(C)(=O)=O)ccc2COC(c2ccc(C#N)cc2)c2cncn2C)c1` (stereo not given), the figure is more than 100 nM.
For `Cn1cncc1C(OCc1ccc(C#N)cc1NS(=O)(=O)c1cccc2ccccc12)c1ccc(C#N)cc1` (stereo not given), the EC50 in [1] is more than 100 nM.
As to `Cn1cncc1C(OCc1ccc(C#N)cc1-c1cccc(Cl)c1)c1ccc(C#N)c(F)c1` (stereo not given), the clearance in the data set “in vivo [4]” is 8 mL/min/kg. Moreover, the AUC in [5] was 1580 ng·h/mL. This compound displayed a concentration giving a half-maximal response (EC50) in [1] of 36 nM. In addition, the bioavailability in “in vivo [7]” came out at 71%. The compound also had a half-life in [6] of 8.7 h.
In the case of `CCOc1cccc(-c2cc(C#N)ccc2COC(c2ccc(C#N)cc2)c2cncn2C)c1` (stereo not given), the clearance in “in vivo [4]” is 16.7 mL/min/kg. Moreover, the area under the curve (AUC) in [5] amounted to 1130 ng·h/mL. In addition, the concentration for half-maximal inhibition (IC50) in data set [10] worked out at 0.69 nM. In addition, the EC50 in data set [1] amounted to 0.19 nM. For the same compound, the half-life in [6] is 2.2 h.
`Cn1cncc1C(OCc1ccc(Cl)cc1-c1ccc(Cl)cc1)c1ccc(C#N)cc1` (stereo not given): the EC50 in data set [1] amounted to 525 nM.
Consider `CCOc1cccc(-c2cc(Cl)ccc2COC(c2ccc(C#N)cc2)c2cncn2C)c1` (stereo not given), for which the 50% effective concentration (EC50) in [1] was 4.6 nM.
Compound `Cn1cncc1C(OCc1ccc(C#N)cc1-c1ccc2c(c1)OCO2)c1ccc(C#N)cc1` (stereo not given) gave a clearance in the data set “in vivo [4]” of 10 mL/min/kg. The compound also returned an AUC in data set [5] of 3660 ng·h/mL. In data set [1], this compound gave an EC50 of less than 1 nM. The half-life in data set [6] was 2.7 h.
Regarding `COc1cccc(-c2cc(C#N)ccc2COC(c2ccc(C#N)c(Cl)c2)c2cncn2C)c1` (stereo not given), the EC50 in data set [1] is 130 nM.
`Cn1cncc1C(OCc1ccc(C#N)cc1-c1cccc2ccccc12)c1ccc(C#N)cc1` (stereo not given) showed an EC50 in data set [1] of 14 nM.
Consider `Cn1cncc1C(OCc1ccc(Cl)cc1-c1cccc(Cl)c1)c1ccc(C#N)cc1` (stereo not given), for which the EC50 in data set [1] amounted to 390 nM.
Take `Cn1cncc1C(OCc1ccc(C#N)cc1-c1cccc2cccnc12)c1ccc(C#N)cc1` (stereo not given): in data set [1], the EC50 came out at 15 nM.
`COCC(=O)Nc1ccc(COC(c2ccc(C#N)cc2)c2cncn2C)c(-c2cccc(OC)c2)c1` (stereo not given): in [1], the EC50 was more than 100 nM.
Take `COc1cccc(-c2cc(Cl)ccc2COC(c2ccc(C#N)cc2)c2cncn2C)c1` (stereo not given): in data set [1], it took 100 nM to reach a half-maximal effect (EC50).
In turn, `Cc1ccc(S(=O)(=O)Nc2cc(C#N)ccc2COC(c2ccc(C#N)cc2)c2cncn2C)cc1` (stereo not given) gave a half-maximal effective concentration (EC50) in [1] of 13 nM.
On to `N#Cc1ccc(C(OCc2ccc(C#N)cc2-c2ccc3c(c2)OCO3)c2cnccc2Cl)cc1` (stereo not given), for which the concentration giving a half-maximal response (EC50) in [1] is more than 100 nM.
Still for that read-out and setting: the same measure for `Cc1ccc(-c2cc(C#N)ccc2COC(c2ccc(C#N)cc2)c2cncn2C)cc1` (stereo not given): more than 100 nM; for `COc1cccc(-c2cc(N)ccc2COC(c2ccc(C#N)cc2)c2cncn2C)c1` (stereo not given): more than 100 nM; for `Cn1cncc1C(OCc1ccc(C#N)cc1NCc1cc(F)cc(F)c1)c1ccc(C#N)cc1` (stereo not given): 150 nM.
On the same count and under the same terms, the same measure for `Cn1cncc1C(OCc1ccc(C#N)cc1-c1cccc(Cl)c1)c1ccc(C#N)cc1F` (stereo not given): 3.3 nM.
Turning to `Cc1ncc(C(OCc2ccc(C#N)cc2-c2ccc3c(c2)OCO3)c2ccc(C#N)cc2)n1C` (stereo not given), the clearance in “in vivo [4]” was 31.2 mL/min/kg. For the same compound, the AUC in data set [5] was found to be 100 ng·h/mL. Moreover, the 50% effective concentration (EC50) in data set [1] amounted to 9.8 nM. In addition, the bioavailability in the data set “in vivo [7]” is 15.2%. Besides, in [6], the half-life is 0.9 h.
Regarding `COc1cccc(-c2cc(C=O)ccc2COC(c2ccc(C#N)cc2)c2cncn2C)c1` (stereo not given), the EC50 in data set [1] was more than 100 nM.
In turn, `COc1cccc(-c2cc(C#N)ccc2COC(c2ccc(Cl)cc2)c2cncn2C)c1` (stereo not given) gave an EC50 in data set [1] of 17.7 nM.
`Cn1cncc1C(OCc1ccc(C#N)cc1-c1cccc(Cl)c1)c1ccc(C(F)(F)F)cc1` (stereo not given): the EC50 in data set [1] is more than 100 nM.
